Among the data in a melting point compilation (Tetko et al.; mined from patent text by program, amines drawn as free bases though some values may be those of a salt) are melting point values, retold here.

A value given as a limit tells only on which side of the number the result lay.

As a reminder, the melting point is the temperature of the solid-liquid transition.

Consider `CNC(=O)Nc1ccc2c(c1)C(=O)NC(=O)C2(C)C`, for which the melting point lay in the range of 257 to 258 °C.
The same measure for `CC(C)c1cc2ncsc2cc1SC1=C(O)CC(CCc2ccc(F)cc2)(C(C)C)OC1=O` (stereo not drawn): 104 to 105 °C; for `N#CCCCCCc1nc(-c2ccc(Cl)cc2)c(-c2ccc(Cl)cc2)o1`: 108 °C; for `O=C(NC1Cc2ccc(-c3ccc(F)cc3)cc2C1)c1ccc(F)cc1` (stereo not drawn): 193 °C.
The same measure for `COc1cc2c3c(n(Cc4ccccc4)c2cc1OC)CCCC3C(=O)N1CCN(c2ccccc2)CC1` (stereo not drawn): 245 to 247 °C; for `CCOC(=O)N1CCN(c2ccc3nc4[nH]c(=O)[nH]c4cc3c2)CC1`: over 300 °C.
Molecule `CC(Oc1ccc(S(C)=O)cc1)c1ccnc2ncnn12` (stereo not drawn) displayed a melting point of 89 to 102 °C.
`Cc1ccc(-c2nnc(N3CCC4(CC3)OCCO4)nc2-c2ccc(C)cc2)cc1`: the melting point was in the range of 169 to 170 °C.
The same measure for `NS(=O)(=O)NC(=O)CCCCCC1CCSS1` (stereo not drawn): 130 to 132 °C; for `Cc1cc(C)c(CP(=O)(Cc2c(C)cc(C)cc2C)Cc2c(C)cc(C)cc2C)c(C)c1`: 232 to 233 °C.
To `OCCn1ccc2cccnc21` belongs 52.7 to 53.3 °C; to `CCCCCS(=O)(=O)NC(=O)c1ccc2sc(C)c(Cc3ccc(Cl)c(Cl)c3)c2c1`, 159 to 160 °C; to `CCCCc1nc(COC)c(C(=O)OC)n1Cc1ccc(-c2ccccc2C(=O)O)cc1`, 106 to 110 °C.
In turn, `CCOC(=O)c1ccc(NCc2ccc3ccc4nc(C)[nH]c(=O)c4c3c2)cc1F` gave a melting point of over 200 °C.
To `Nn1c2c(c3ccccc3c1=O)C(=O)c1ccccc1-2` belongs 272 to 274 °C; to `Fc1ccc(CNc2nc(OCc3ccccc3)nc(OCc3ccccc3)n2)cc1`, 157 to 159 °C.
To `CCOC(=O)C(=O)Nc1ccc(NC(=O)C(=O)OCC)nc1` belongs 178 to 180 °C.
The same measure for `O=[N+]([O-])c1c(Nc2ccc(O)cc2)ncnc1-c1ccc(C(F)(F)F)cc1F`: 169 to 172 °C; for `COc1ccc(CCNC(N)=O)cc1OC1CCCC1`: 136 to 137 °C.
`CC(C)Cn1cnc2c(N)nc3cc(CCc4ccccc4)ccc3c21` gave a melting point of 172 to 173 °C.
To `CCN(CC)S(=O)(=O)c1cc(C(=O)CCl)ccc1Cl` belongs 63 to 65 °C.
To `NC(=O)Cn1ncc2c1CN=C(c1ccccc1)c1cc(Cl)ccc1-2` belongs 218 to 219 °C.
To `N=C(NC(=O)c1ccc2ccccc2c1)c1ccc(N2CC(CN3CCN(CCC(=O)O)CC3)OC2=O)cc1` (stereo not drawn) belongs 80 to 83 °C.
Molecule `CC(=O)OC1N=C(c2ccccc2)c2cc(Cl)ccc2-c2c1nc(C)[nH]c2=O` (stereo not drawn) registered a melting point of over 320 °C.
On to `Oc1c(Cl)cc(Cl)cc1Cc1cc(F)cc(Cc2cc(Cl)cc(Cl)c2O)c1O`, for which the melting point is 168 °C.
Regarding `CS(=O)(=O)Nc1cc2oc(C(N)=O)cc(=O)c2cc1Oc1ccccc1`, the melting point was over 250 °C.
The same measure for `Cn1cc(CN2CCC[C@H]2CO)c2ccccc21`: 46 to 48 °C.
To `CC(C)C(O)(Cn1cncn1)c1ccc(Oc2ccc(Cl)cc2)cc1C(F)(F)F` (stereo not drawn) belongs 114 °C; to `COc1cc2nc(N)nc(-c3ccc(O)c(F)c3)c2cc1OC`, 268 to 270 °C; to `COc1ccc(N)c(C2Cc3ccccc3N2)c1` (stereo not drawn), 120 to 123 °C.
`O=C(Nc1cccc(S(=O)(=O)N2CCOCC2)c1)c1cnn2c(C(F)F)cc(-c3ccc(Cl)cc3)nc12`: the melting point is 253 °C.
The same measure for `CNC(=O)c1cnn(-c2ccc(Cl)cc2Cl)c1C(F)(F)F`: 143 to 144 °C.
The same measure for `COc1c(/C=C/c2ccc(C#N)cc2)c(C)cc2c1C(C)(C)CCC2(C)C`: 120 °C; for `COC(=O)[C@@H]1C/C=C/COc2ccc(cc2)C[C@H](NC(=O)OC(C)(C)C)C(=O)N[C@@H](C(C)C)C(=O)N1`: 105 to 107 °C; for `O=C(O)C1=CSCCO1`: 144 °C.
As to `CN1CCC(O)(c2csc3ccccc23)CC1`, the melting point was 150 to 151 °C.
To `Cc1ccc(S(=O)c2nc(Cl)c([N+](=O)[O-])s2)cc1` (stereo not drawn) belongs 112 °C; to `NC(=S)c1nccn1Cc1cccs1`, 152 to 153 °C; to `Cc1ccc(CS(=O)c2nc3cc4c(cc3[nH]2)OCO4)nc1` (stereo not drawn), 185 to 187 °C.
Molecule `Nc1ccc(S(=O)c2ccc(Sc3ccc(Cl)c([N+](=O)[O-])c3)cc2)cc1[N+](=O)[O-]` (stereo not drawn) displayed a melting point of 170 to 172 °C.
To `O=C(O)CCc1cn(Cc2ccc(OCc3cccnc3)cc2)cc1-c1ccccc1` belongs 131 to 132 °C; to `NC(=S)N(N)Cc1cccc(Cl)c1`, 153 to 158 °C.
`CCCCCCCCCCCCc1c(C)[nH]c(C(=O)OCC)c1C` showed a melting point of 65 to 67 °C.
Molecule `N=Cc1ccccc1[N+](=O)[O-]` came in with a melting point of 117 to 119 °C.
To `Cc1nc2c(N)nc3cc(OCCC4CCN(C(=O)C(C)C)CC4)ccc3c2n1CC(C)C` belongs 205 to 207 °C.
To `N#CCCn1nc(-c2ccc(OCc3ccccc3)cc2)sc1=S` belongs 138 °C; to `Oc1ccc2c(-c3ccco3)nn(Cc3ccccc3F)c2n1`, 250 °C; to `CC1CCC(C(C)C)C(OC(=O)CCC(=O)OC2CC(C)CCC2C(C)C)C1` (single isomer, unassigned; (-)), 61 to 62 °C.
The molecule `C[Si](C)(C)OC1(C#N)CCOc2ccc(Cl)cc21` (stereo not drawn) gave a melting point of 72 to 73 °C.
`CCOC(=O)C(C)(C)Oc1ccc(OCCc2nc(-c3ccc(C(N)=O)cc3)oc2C)cc1` displayed a melting point of 112 °C.
Consider `COC(=O)C(=O)NCCCCCC1CCSS1` (stereo not drawn), for which the melting point lay within 42 to 43 °C.
On to `COc1cccc(Nc2ncc3cc4ccccc4n3n2)c1`, for which the melting point was 191 to 193 °C.
Molecule `CCCc1c(OCCCOc2ccc3c(c2CCC)OC(CCC#N)CC3)ccc(C(C)=O)c1O` (stereo not drawn) came in with a melting point of 89 to 89.5 °C.
In the case of `CCn1nc2c(N)nc3ccccc3c2c1CC(C)C`, the melting point was 208 to 209 °C.
The same measure for `CNC(=O)C1CN(CCCC(c2ccc(F)cc2)c2ccc(F)cc2)CCN1CC(=O)Nc1c(C)cc(C)cc1C` (stereo not drawn): 90.2 °C; for `CN1C(=O)NC2(CCN(C(=O)OC(C)(C)C)CC2)C1=O`: 206 to 208 °C.
To `CC(C)c1ccccc1Sc1c(O)cc(-c2ccc(OCC3CCCCC3)cc2)oc1=O` belongs 187 to 188 °C; to `COc1cc(CCNC(=O)[C@@H](NC(=O)OC(C)(C)C)C(C)C)ccc1OC/C=C\c1ccc(Cl)cc1`, 82 to 84 °C; to `COc1ccc(CN(C)CCc2ccc(NC(=O)c3cccc4c(=O)c5cccc(OC)c5[nH]c34)cc2)cc1OC`, 172 °C.
To `COc1ccc(CC(C)NC(O)Cc2cc3ccccc3o2)cc1` (stereo not drawn) belongs 75 to 85 °C.
As to `Cc1ncc2c(c1OCC(=O)O)COC2c1ccc(F)cc1` (stereo not drawn), the melting point was determined as 214 °C.
The molecule `Cc1ccc(S(=O)(=O)C(CCCCCc2cccc(C(F)(F)F)c2)C(=O)O)cc1` (stereo not drawn) showed a melting point of 62 °C.
The same measure for `CCN(CC)C(=O)C=Cc1ccc(C2=C(c3ccc(O)cc3)CCc3cc(O)ccc32)cc1`: 222 °C; for `C=Cc1cc(O)cc2nc(-c3ccc(O)cc3F)oc12`: 274 to 275 °C; for `Cn1cc2c(C3C(=O)Nc4ccc(Br)cc43)nc(NCCN)nc2n1` (stereo not drawn): 260 to 262 °C.
The same measure for `COC(=O)C(=C(C)NCC(O)CO)c1ncc([N+](=O)[O-])cc1[N+](=O)[O-]` (stereo not drawn): 128 to 129 °C.
`C=C(C)COc1ccc(C(=O)C=Cc2c[nH]c3ccccc23)c(O)c1`: the melting point is 29 to 30 °C.
To `CC(C)(C)NC(=O)c1ccccc1-c1ccc(CBr)cc1` belongs 124 to 126 °C; to `O=C(Nc1cnc2c(c1)CCCC2)C(Cl)(Cl)Cl`, 157 to 159 °C; to `COC1(c2ccc(C(F)(F)F)cc2CN(Cc2cc(C(F)(F)F)cc(C(F)(F)F)c2)c2nnn(C)n2)CCCCCC1`, 103 to 104 °C.
To `O=C(O)CN1C(=O)C(=Cc2c3ccccc3cc3ccccc23)SC1=S` belongs 277 to 279 °C; to `Cc1cc(-c2ccc(S(C)(=O)=O)cc2)n(-c2ccc(F)cc2)c1Br`, 158 to 159 °C.
To `COC(=O)C(C(=O)OC)=C1SC=CS1` belongs 125 to 129 °C.
The molecule `CCOC(=O)CCCCCOc1ccc(C=O)cc1` showed a melting point of 33 to 35 °C.
To `CN1CCCC1=NC(=S)Nc1ccccc1` belongs 142 to 144 °C; to `OCc1cc2cc(Cl)cc(Br)c2o1`, 123 to 126 °C; to `N#CC(C(=O)Nc1ccon1)C(=O)c1nn(-c2ccccc2)c2c1CSc1ccccc1-2` (stereo not drawn), 228 to 230 °C.
To `N#Cc1cn(CO)cc1-c1ccccc1Cl` belongs 94 to 97 °C.
In the case of `CCOc1ccc(-c2nc(CCC(=O)c3nccs3)cs2)cc1OCC`, the melting point fell in the range of 93.1 to 94.4 °C.
As to `Ic1cccc(OCc2ccc3ccccc3c2)c1`, the melting point was 111 to 112 °C.
The same measure for `Cc1nc(-c2ccc(-c3cscn3)c(C)c2)c(-c2ccc(S(C)(=O)=O)c(F)c2)o1`: 177 to 178 °C; for `O=C1C=CC(O)(c2cc3ccccc3n2S(=O)(=O)c2ccccc2)C=C1`: 170 to 172 °C; for `CC1(C)CC(=O)C(S(=O)(=O)Cc2ccccc2)=C(O)C1`: 87 to 89 °C.
The same measure for `CC(C)C1CCN(Cc2ccc(COc3cccc4c3C(=O)N(C3CCC(=O)NC3=O)C4=O)cc2)CC1` (stereo not drawn): 220 to 222 °C.
To `Cc1ccccc1C(=O)CC(C#N)C#N` belongs 92 to 93 °C; to `CN1CCCN(Cc2nc(-c3ccc4c(c3)Nc3ccccc3S4)cs2)CC1`, 135 to 137 °C; to `Nc1cc(C(=O)Cn2c(-c3nonc3N)nc3ccccc32)ccc1Cl`, 228 to 230 °C.
Molecule `Cc1ccccc1NNC(=O)c1ccccc1C(F)(F)F` yielded a melting point of 55 to 57 °C.
